This is an account of results in ChEMBL document CHEMBL1121882, “Approaches to vasodilating/beta-adrenergic blocking agents: examples of the dihydrolutidine type” (1981).

The test system of experiment [1] is Rattus norvegicus. Nature of the experiment: Compound was tested for effect on arterial pressure in spontaneously hypertensive rats (SHR) at 1.25 mg/kg, po. In kind it is functional, Artery.
The subject of experiment [2] is Rattus norvegicus. The experiment is described as follows: Compound was tested for effect on arterial pressure in spontaneously hypertensive rats (SHR) at 20 mg/kg administered intraperitoneally; Death. In kind it is functional, organism-based. Also noted: dose 20 mg/kg. As to conditions: Artery.
Experiment [3] has as its system Rattus norvegicus. Nature of the experiment: Compound was tested for effect on arterial pressure in spontaneously hypertensive rats (SHR) at 5 mg/kg, po. It is filed as functional, Artery.
For experiment [4], the system named is Rattus norvegicus. Nature of the experiment: Compound was tested for effect on arterial pressure in spontaneously hypertensive rats (SHR) at 20 mg/kg, po. In kind it is functional, Artery.
The subject of experiment [5] is Rattus norvegicus. Nature of the experiment: Compound was tested for effect on arterial pressure in spontaneously hypertensive rats (SHR) at 20 mg/kg administered intraperitoneally. In kind it is functional, Artery. As to conditions: route intraperitoneal.

In the case of `CC(C)(C)NC[C@H](O)COc1nsnc1N1CCOCC1` [TIMOLOL], the “Max fall in MAP” value in the experiment with Rattus norvegicus [1] was -1 mmHg.

On to `CCOC(=O)C1=C(C)N=C(C)/C(=C(/O)OCC)C1c1ccc(OCC(O)CNC(C)(C)C)cc1` (stereo not given), for which the “Max fall in MAP” value is on record as “Death” in the experiment with Rattus norvegicus [2] and 17 mmHg with Rattus norvegicus [3].

As to `CC(C)NCC(O)COc1cccc2ccccc12` (stereo not given) [PROPRANOLOL], the “Max fall in MAP” value in the experiment on Rattus norvegicus [3] came to 7 mmHg.

In the case of `CCOC(=O)C1=C(C)N=C(C)/C(=C(/O)OCC)C1c1ccccc1OCC(O)CNC(C)(C)C` (stereo not given), the “Max fall in MAP” value was 16 mmHg with Rattus norvegicus [4] and 15 mmHg in the experiment with Rattus norvegicus [5].

For `CCOC(=O)C1=C(C)N=C(C)/C(=C(/O)OCC)C1c1ccccc1C(F)(F)F` (stereo not given), the “Max fall in MAP” value in the experiment on Rattus norvegicus [3] came out at 41 mmHg.

With `CCOC(=O)C1=C(C)N=C(C)/C(=C(/O)OCC)C1c1ccc(OCC(O)CNC(C)(C)C)cc1C` (stereo not given), the entries for the “Max fall in MAP” value with Rattus norvegicus [1], in the experiment with Rattus norvegicus [2] and in the experiment with Rattus norvegicus [3] were 12 mmHg, “Death” and 42 mmHg, respectively.
